From US8178506B2, “Oligomeric compounds and compositions for use in modulation of small non-coding RNAs” (Regulus Therapeutics Inc., priority 2003, dated 2012)
Where “and” joins values, the source holds several entries; their conditions need not be identical. Equal entries are not always repeated. In the oligonucleotide strings, read from the 5' end, every base follows the letter of its sugar. An asterisk marks phosphorothioate; unmarked linkages are phosphodiester. Other units and linkages are bracketed, terminal groups are in braces. A string of capitals states the bases alone. e = 2'-O-(2-methoxyethyl) (MOE); [5mC] = 5-methylcytosine; d = 2'-deoxy (DNA)

Tested on: HeLa cells
Assay: Cell cycle assay in HeLa cells
Format: cell-based, human
Details: HeLa cells; for % cells in cell cycle phase: G1 / % cells in cell cycle phase: G2/M / % cells in cell cycle phase: S / % cells in cell cycle phase: aneuploid / % cells in cell cycle phase: subG1: 48 hours after treatment, relative to untreated control (UTC=100)
[1] = 150 nM oligomeric compound, 24 hours, relative to untreated control (UTC = 100)
[2] = 150 nM, 48 hours, relative to untreated control

Substance	% cells aneuploid [1]	% cells in cell cycle phase G1 [1]	% cells in cell cycle phase G2/M [1]	% cells in cell cycle phase S [1]	% cells in cell cycle phase subG1 [1]	% cells in cell cycle phase: G1 (150 nM oligomeric compound)	% cells in cell cycle phase: G2/M (150 nM oligomeric compound)	% cells in cell cycle phase: S (150 nM oligomeric compound)	% cells in cell cycle phase: aneuploid (150 nM oligomeric compound)	% cells in cell cycle phase: subG1 (150 nM oligomeric compound)	% cells in cell cycle phase G1 [2] [%]	% cells in cell cycle phase G2/M [2] [%]	% cells in cell cycle phase S [2] [%]	% cells in cell cycle phase aneuploid [2] [%]	% cells in cell cycle phase subG1 [2] [%]
327910 (antisense eT*eG*eA*eT*eA*eG*e[5mC]*e[5mC]*e[5mC]*eT*eG*eT*eA*e[5mC]*eA*eA*eT*eG*e[5mC]*eT*eG*e[5mC]*eT) [compound 327910]	73%	154%	118%	42%	174%	99%	111%	91%	92%	53%					
327889 (antisense eG*eT*eG*eG*eT*eA*eA*eT*e[5mC]*e[5mC]*e[5mC]*eT*eG*eG*e[5mC]*eA*eA*eT*eG*eT*eG*eA*eT) [compound 327889]	82%	104%	87%	102%	122%	78%	130%	137%	101%	133%					
327922 (antisense eT*e[5mC]*eA*eG*eT*eT*eT*eT*eG*e[5mC]*eA*eT*eG*eG*eA*eT*eT*eT*eG*e[5mC]*eA*e[5mC]*eA) [compound 327922]	104%	97%	114%	96%	131%	96%	109%	105%	91%	81%					
327876 (antisense eA*eA*e[5mC]*eA*e[5mC]*eT*eG*eA*eT*eT*eT*e[5mC]*eA*eA*eA*eT*eG*eG*eT*eG*e[5mC]*eT*eA) [compound 327876]	66% and 75%	98% and 93%	95% and 131%	104% and 92%	103% and 149%	87% and 76%	119% and 126%	120% and 141%	100% and 69%						
327903 (antisense eA*eA*e[5mC]*eT*eA*eT*eA*e[5mC]*eA*eA*e[5mC]*e[5mC]*eT*eA*e[5mC]*eT*eA*e[5mC]*e[5mC]*eT*e[5mC]*eA) [compound 327903]	98%	92%	106%	104%	118%	102%	98%	95%	94%	74%					
328136 (eA*eA*e[5mC]*eT*eA*e[5mC]*eT*eT*e[5mC]*e[5mC]*eA*eG*eA*eG*e[5mC]*eA*eG*eG*eT*eG*eA; anti-miR) [compound 328136]	51%	125%	88%	81%	330%	83%	113%	133%	85%	140%					
327901 (antisense eT*eG*eA*eG*e[5mC]*eT*eA*e[5mC]*eA*eG*eT*eG*e[5mC]*eT*eT*e[5mC]*eA*eT*e[5mC]*eT*e[5mC]*eA) [compound 327901]	90%	101%	110%	94%	108%	98%	103%	104%	104%	93%					
340927 (antisense eT*eG*eA*eG*e[5mC]*dT*dA*d[5mC]*dA*dG*dT*dG*d[5mC]*dT*dT*e[5mC]*eA*eT*e[5mC]*eT*e[5mC]*eA) [compound 340927]	88% and 87%	121% and 128%	111% and 106%	75% and 71%	118% and 131%	91%	121% and 122%	107%	113% and 108%	95% and 83%					
327933 (antisense eA*eA*eG*eG*eG*eA*eT*eT*e[5mC]*e[5mC]*eT*eG*eG*eG*eA*eA*eA*eA*e[5mC]*eT*eG*eG*eA*e[5mC]) [compound 327933]	92% and 47%	102% and 90%	131% and 140%	83% and 91%	192% and 190%	76% and 80%	138% and 123%	135% and 133%	86% and 75%						
327906 (antisense eT*e[5mC]*eA*eT*eA*eG*e[5mC]*e[5mC]*e[5mC]*eT*eG*eT*eA*e[5mC]*eA*eA*eT*eG*e[5mC]*eT*eG*e[5mC]*eT) [compound 327906]	65%	153%	107%	47%	228%	100%	103%	98%	83%	57%					
328362 (eT*eG*eT*eG*eT*dT*dT*dT*d[5mC]*dT*dG*dA*d[5mC]*dT*d[5mC]*eA*eG*eT*e[5mC]*eA) [compound 328362]	66%	101%	126%	87%	114%	96%	108%	104%	97%	87%					
328111 (antisense eT*e[5mC]*e[5mC]*eG*eA*eG*eT*e[5mC]*eG*eG*eA*eG*eG*eA*eG*eG*eA*eG*eG*eA*eA) [compound 328111]	50%	127%	99%	75%	62%	84%	119%	126%	90%	371%					
327934 (antisense eG*eG*eT*eA*e[5mC]*eA*eA*eT*e[5mC]*eA*eA*e[5mC]*eG*eG*eT*e[5mC]*eG*eA*eT*eG*eG*eT) [compound 327934]	55% and 77%	87% and 118%	160% and 137%	85% and 66%	278% and 204%	62% and 66%	152% and 155%	156% and 148%	92% and 117%						
327904 (antisense eA*e[5mC]*eT*e[5mC]*eA*e[5mC]*e[5mC]*eG*eA*e[5mC]*eA*eG*e[5mC]*eG*eT*eT*eG*eA*eA*eT*eG*eT*eT) [compound 327904]	89%	99%	99%	102%	114%	87%	114%	126%	80%	116%					
327911 (antisense eG*e[5mC]*eT*eA*e[5mC]*e[5mC]*eT*eG*e[5mC]*eA*e[5mC]*eT*eG*eT*eA*eA*eG*e[5mC]*eA*e[5mC]*eT*eT*eT*eT) [compound 327911]	104%	130%	122%	62%	158%	99%	109%	96%	101%	65%					
328759 (antisense eG*eA*eG*eG*eG*dA*dT*dT*dG*dT*dA*dT*dG*dA*dA*e[5mC]*eA*eT*e[5mC]*eT) [compound 328759]	184%	88%	168%	78%	239%	50%	343%	31%	148%	1744%	40	203	82	223	797
